Values quoted from earlier work as cited in publication PMC139967 (BMC Biochemistry, 2002).

Tested on: calmodulin

## KAHKAATKIQASFRGHITRKKLKC [NM]
  effect of high ionic strength on calmodulin binding: reduced by high ionic strength
